Laboratory results taken from PubChem BioAssay AID179 (DTP/NCI, 2004).
Values joined by “and” are separate entries in the source; they are usually repeats but may differ in a detail not shown here. Equal values may be shown once. Active and inactive are the calls of the source.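 How the source made its calls: active means compounds giving half or more protection of infected cells from virus-caused growth loss, again on retest; inactive means the rest.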

Test system: CEM cells HIV-1 protection, formazan growth assay
Assay: NCI AIDS Antiviral Assay
Conditions: for IC50: measured here: growth of uninfected CEM cells
How it was run: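 Human CEM cells, uninfected and HIV-1-infected, received five drug concentrations, and growth was read by soluble formazan assay. Compounds giving at least 50% protection were retested; reproducible 100% protection defined confirmed active.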

| SMILES | outcome | EC50 | IC50 |
| --- | --- | --- | --- |
| C1CCCCc2nc3c(nc2CCC1)c1nc2c(nc1c1nc4c(nc31)CCCCCCCC4)CCCCCCCC2 | inactive |  |  |
| NCCOCCOCC(=O)O | inactive |  |  |
| O=S(=O)(O)CCCCCO |  | > 200 µM | > 200 µM |
| COC1C=C(NCC2(CO)CCC2)NC(N)=N1 (centres undefined) |  | > 200 µM | > 200 µM |
| CC(C)(C)OC(=O)N1N=NC2C1C1CC(OCc3ccccc3)(OCc3ccccc3)C2O1 (centres undefined) |  | > 15.8 µM | > 15.8 µM |
| O=C(O)C1C(c2c3ccc(=O)c(O)c-3oc3c(O)c(O)ccc23)C2(Cl)C(Cl)=C(Cl)C1(Cl)C2(Cl)Cl (centres undefined) |  | > 151 µM | > 151 µM |
| O=c1cc(-c2c(O)cc(O)cc2O)oc2cc(O)cc(O)c12 |  | > 200 µM | > 200 µM |
| Cc1nc(C)c(N2CCN(C(=O)O)CC2)c(=O)[nH]1 |  | > 200 µM | > 200 µM |
| Cc1cn2c(=O)c3ccccc3nc2s1 |  | > 4.79 µM | > 4.79 µM |
| CCOC(=O)/C(=C\c1ccc(C)cc1)[Se]c1ccccc1 |  | > 5.75 µM | > 5.75 µM |
| COc1ccccc1N1C(=O)/C(=C/c2ccc(N(CCC#N)CCC#N)cc2C)N=C1c1cc([N+](=O)[O-])ccc1Cl | inactive |  |  |
| CCOc1ccc(N=C(NC(=O)c2ccccc2)SC)cc1 |  | > 22.4 µM | > 22.4 µM |
| COc1ccc2c(c1)c1c3c(ccc4ncn2c43)N(CCO)CCN=1 |  | > 100 µM | 0.178 µM |
| Cc1ccc(NC(=S)NNC(=O)c2cc(-c3ccccc3)nc3ccccc23)cc1C |  | > 200 µM | 12.6 µM |
| CCOC(=O)c1cc2c([nH]1)C(=O)CSC1=C2CCN1Cc1ccccc1 |  | > 50.1 µM | 21.9 µM |
| COc1cc(OC)c2c(=O)c(OC)c(-c3ccc4c(c3)OCO4)oc2c1 |  | > 200 µM | > 200 µM |
| O=c1oc(-c2ccccc2)c(-c2ccccc2)n1-c1ccc(Br)cc1 |  | > 100 µM | > 100 µM |
| O=c1c2ccccc2[nH]c(=S)n1-c1ccc(Br)cc1 |  | > 40.7 µM | > 40.7 µM |
| Nc1ccc(Sc2c3ccccc3nc3ccccc23)cc1 |  | > 17.4 µM | 9.55 µM |
| Cc1csc2nc3c(cnn3C)c(=S)n12 |  | > 200 µM | 38.9 µM |
| O=[N+]([O-])c1cccc(S(=O)(=O)c2cccc([N+](=O)[O-])c2)c1 |  | > 200 µM | > 200 µM |
| CCOc1ccc(N=Nc2c(-c3ccccc3)nn(C(=O)CC(=O)Nc3cccc(C)c3)c2-c2ccccc2)cc1 |  | > 47.9 µM | > 47.9 µM |

| SMILES | outcome | EC50 | IC50 |
| --- | --- | --- | --- |
| CC1(C)C(=O)c2cc3ccccc3nc2-c2ccccc21 |  | > 200 µM | 24.5 µM |
| Oc1ccccc1C=NCc1ccco1 | inactive |  |  |
| O=C(CC(=O)c1ccc(Cl)cc1)Cc1ccc2ccccc2n1 |  | > 11.2 µM | > 11.2 µM |
| Cc1c2ccccc2c(=O)n2c(-c3ccccn3)cccc12 |  | > 200 µM | 120 µM |
| Cc1cccc(C)c1N=Nc1ccc(O)c(CN(C)C)c1 |  | > 200 µM | 39.8 µM |
| COc1cc2c(cc1OC)C(Cc1ccc(O)cc1)N(C)CC2 (centres undefined) | inactive |  |  |
| CCOP(=O)(OCC)/C(C#N)=C\c1ccsc1 |  | > 912 µM | > 912 µM |
| N#CCCN(CCC#N)C(=O)Nc1cccc2ccccc12 | inactive |  |  |
| N.N.N.O=N[O-].O=N[O-].O=N[O-].[Co+3] | inactive |  |  |
| CC(C)(C)OC(=O)CN1CCNCCN(CC(=O)OC(C)(C)C)CC1 |  | > 200 µM | 38 µM |
| CCOC(=S)SSC(=S)OCC |  | > 200 µM | 107 µM |
| CC(=O)Oc1ccc2cc(Oc3ccccc3)c(=O)oc2c1 |  | > 200 µM | 85.1 µM |
| Cc1cc(SCC(=O)c2ccccc2[N+](=O)[O-])cc(C)[o+]1 |  | > 200 µM | 77.6 µM |
| c1ccc(CN2CCC(=NN3CCCCC3)CC2)cc1 |  | > 200 µM | 89.1 µM |
| CCCC(Cc1ccccc1)N1CCCC1 (centres undefined) |  | > 200 µM | > 200 µM |
| Cn1ccc2c3c(ccc21)C(N1CCOCC1)=CS(=O)(=O)O3 | inactive |  |  |
| CCOc1csc([C@H]2CCC3[C@@H]4CC=C5C[C@@H](OC(C)=O)CC[C@]5(C)C4CC[C@@]32C)n1 (some centres undefined) |  | > 56.2 µM | > 56.2 µM |
| Clc1ccc(-n2nnc(C3=NCCN3)c2-c2ccccc2)cc1 |  | > 30.9 µM | > 30.9 µM |
| Cc1cc(S(=O)(=O)Nc2nc(N)n(-c3ccccc3)n2)c(S)cc1Cl |  | 129 µM | 468 µM |
| CSc1nc(NC2OC(COC(C)=O)C(OC(C)=O)C(OC(C)=O)C2OC(C)=O)c(N=C(C)C(C)=O)c(=O)[nH]1 (centres undefined) | inactive |  |  |
| CC(C)C(=O)[O-].CC(C)C(=O)[O-].N.N.N.N.[Co+3].[O-][Cl+3]([O-])([O-])[O-] | inactive |  |  |
| CO[C@H]1/C=C/O[C@@]2(C)Oc3c(C)c(O)c4c(O)c(c(/C=N/N5CCNCC5)c(O)c4c3C2=O)NC(=O)/C(C)=C\C=C\[C@H](C)[C@H](O)[C@@H](C)[C@@H](O)[C@@H](C)C(OC(C)=O)[C@@H]1C (some centres undefined) |  | > 200 µM | 50.1 µM |

| SMILES | outcome | EC50 | IC50 |
| --- | --- | --- | --- |
| C[C@@H]1C[C@@H](O)[C@]2(O)O[C@@H]3C[C@@]4(C=O)[C@@H](CC[C@@H]5[C@@H]4CC[C@]4(C)[C@@H](C6=CC(=O)OC6)CC[C@]54O)C[C@H]3O[C@@H]2O1 |  | > 468 µM | 1.82 µM |
| CC1(C)CC(=O)c2c(ccc(C(=O)C[C@@H](N)CO)c2N)O1 | inactive |  |  |
| CCCCCCCCCCCCCCCCOC1N(C2CC(N=[N+]=[N-])C(CO)O2)C(=O)NC(=O)[C@]1(C)Cl (some centres undefined) |  | > 200 µM | 31.6 µM |
| Cc1cn(C2CC(N=[N+]=[N-])C(COC(=O)C3OC(C)(C)O[C@@]34CC[C@H]3[C@@H]5CCC6=CC(=O)C=C[C@]6(C)[C@H]5[C@@H](O)C[C@@]34C)O2)c(=O)[nH]c1=O (some centres undefined) |  | 0.0589 µM | 11.5 µM |
| O=c1[nH]cnc2c1sc1nc3ccccc3n12 |  | > 200 µM | 141 µM |
| COc1ccc(C(N)=O)cc1N=NN(C)C |  | > 1120 µM | 501 µM |
| N#CC(C(=N/NC(N)=S)/C(=N/NC(N)=S)C(C#N)c1ccc(Cl)cc1)c1ccc(Cl)cc1 (centres undefined) |  | > 257 µM | 186 µM |
| C[C@]12CC[C@H]3[C@@H](CC=C4C[C@@H](O)CC[C@@]43C)[C@@H]1CC[C@@H]2N(CCO)CCO |  | > 200 µM | 60.3 µM |
| CCC1(CC)COP(=S)(SCCOC(=O)c2ccccc2)OC1 |  | > 200 µM | 46.8 µM |
| CC(C)(C)[Si](C)(C)OCC1OC(n2ccc(=O)[nH]c2=O)/C(=C\C#N)C1O[Si](C)(C)C(C)(C)C (centres undefined) |  | > 200 µM | 35.5 µM |
| COC(=O)[C@]1(C)CCCC2(C)C3=C(CCC21)CC1(CC3)SCCS1 (some centres undefined) |  | > 186 µM | 74.1 µM |
| CCN=C1SC2C(=O)N(C)C(S1)C(=O)N2C |  | > 692 µM | 36.3 µM |
| CC1=CP(=O)(c2ccccc2)C=C(C)C1=C(Cl)Cl (centres undefined) | inactive |  |  |
| O=c1ccn(C2SC(CO)CC2F)c(=O)[nH]1 (centres undefined) |  | > 25.1 µM | > 25.1 µM |
| O=C1C(O)C(O)C(O)C(O)C1O (centres undefined) |  | > 200 µM | > 200 µM |
| O=C1OC(=O)C2C1C1(c3ccccc3)OC2(c2ccccc2)c2c(Br)c(Br)c(Br)c(Br)c21 (centres undefined) | inactive |  |  |
| COc1cc2c(cc1OC)-c1c3cc(O)ccc3nn[n+]1CC2 | inactive |  |  |
| COc1cc2c(cc1OC)C1OC(c3cc(OC)c(OC)cc3C1OC(C)=O)C2OC(C)=O (centres undefined) |  | > 50.1 µM | > 50.1 µM |
| COP(=O)(O)C(N)Cc1c[nH]c2ccccc12 (centres undefined) |  | > 200 µM | > 200 µM |
| CCC[C@H]1[C@H](CCC)[C@@]2(OC(=O)C3=C2CCC=C3)[C@]12OC(=O)C1=C2CCC=C1 |  | > 107 µM | 20 µM |
| COc1cc(OC)cc(Oc2nc3cc(F)c(F)cc3nc2-c2ccccc2)c1 |  | > 200 µM | > 200 µM |
| Clc1ccc(OCc2nnc(CCCCCCCCc3nnc(COc4ccc(Cl)cc4)n3Nc3ccccc3)n2Nc2ccccc2)cc1 | inactive |  |  |

| SMILES | outcome | EC50 | IC50 |
| --- | --- | --- | --- |
| COC1CC2C3/C(=N/Nc4ccc([N+](=O)[O-])cc4[N+](=O)[O-])CCC2(C)C3C1 (centres undefined) | inactive |  |  |
| COc1cc(C2c3cc4c(cc3OC(NN)C2C)OCO4)cc(OC)c1O (centres undefined) | inactive |  |  |
| CCOC(=O)c1c(NS(=O)(=O)c2ccc(C)cc2)sc(C)c1-c1ccccc1 |  | > 200 µM | 21.9 µM |
| CCNC(=O)C(O)C1(O)CCC2[C@@H]3CCC4=CC(=O)C=C[C@]4(C)C3[C@@H](O)C[C@@]21C (some centres undefined) | inactive |  |  |
| COC(=O)Nc1nc2ccc(C(=O)c3ccccc3)cc2[nH]1 |  | > 2 µM | 0.0692 µM |
| O=C(c1cc2ccccc2o1)N(Cc1ccccc1)c1ccccc1 |  | > 79.4 µM | > 79.4 µM |
| CC(C)=C/C=C1/CS(=O)(=O)C=C1C |  | > 200 µM | 135 µM |
| O=C(N=Nc1ccc(Br)cc1)NNc1ccc(Br)cc1 |  | > 200 µM | 12.9 µM |
| N#C/C=C\c1ccc(C#N)cc1 |  | > 64.6 µM | > 64.6 µM |
| COc1ccc(C(C(N)=O)N2CCCCC2)cc1 (centres undefined) |  | > 200 µM | > 200 µM |
| O=C1c2c(O)ccc(O)c2C(=O)c2c(NCCNCCO)ccc(NCCNCCO)c21 |  | > 0.708 µM | 0.00186 µM and 0.00251 µM |
| O=S1(=O)CCN(Cc2ccccc2)/C1=N\S(=O)(=O)c1ccc(Cl)cc1 |  | > 200 µM | 17 µM |
| CC(=O)Nc1c(Nc2ccc3c(=O)[nH]ccc3c2C)cc[nH]c1=O |  | > 398 µM | 191 µM |
| O=C(/C=C/c1cccs1)c1ccc([N+](=O)[O-])cc1 |  | > 200 µM |  |
| Cc1ccc(=O)n(Cc2ccccc2)n1 |  | > 1260 µM | 912 µM |
| Cn1cc(NC(=O)Nc2cc(C(=O)Nc3cc(C(=O)Nc4cc(S(=O)(=O)O)c5cc(S(=O)(=O)O)cc(S(=O)(=O)O)c5c4)n(C)c3)n(C)c2)cc1C(=O)Nc1cc(C(=O)Nc2cc(S(=O)(=O)O)c3cc(S(=O)(=O)O)cc(S(=O)(=O)O)c3c2)n(C)c1 |  | 4.68 µM | 224 µM |
| O=[N+]([O-])c1cccc(S(=O)(=O)SSS(=O)(=O)c2cccc([N+](=O)[O-])c2)c1 |  | > 40.7 µM | > 40.7 µM |
| Cc1cccc(C)c1N=O | inactive |  |  |
| C=CCOCCCCC(C(C)=O)C(=O)OC (centres undefined) |  | > 251 µM | > 251 µM |
| OCCN1CCN(CCCN2c3cc(Cl)ccc3Sc3ccsc32)CC1 |  | > 316 µM | 15.5 µM |
| COc1ccc2c(c1)CC1Cc3ccccc3CCN1C2 (centres undefined) |  | > 200 µM | 39.8 µM |
